System: pathogenic Listeria bacteria
Experiment: Prevention of Listeria infection in mice (centaurein given before infection), cumulative survival
Type: in vivo, C57BL/6J mice
Settings: 20 μg per capita intraperitoneally 24 h before 1-2×10^6 Listeria i.p.; ten days after Listeria injection
Procedure: Six-to-eight week-old C57BL/6J mice were injected intraperitoneally with centaurein at a dose ranging from 0-20 μg per capita. After twenty four hours, the same mice were injected with pathogenic Listeria bacteria. A dose of 1-2×10^6 bacteria were introduced intraperitoneally (in a total volume of 0.2 ml) into each mouse. The cumulative survival rates of the mice were then determined. […] In contrast, only 10% of the mice that were injected with Listeria and not treated with centaurein survived. Thus, centaurein protected the mice from a Listerial infection.

For COc1ccc(-c2oc3cc(O[C@@H]4O[C@H](CO)[C@@H](O)[C@H](O)[C@H]4O)c(OC)c(O)c3c(=O)c2OC)cc1O [centaurein], the “cumulative survival of mice” value was “all of the mice”.

Source: patent US7341752B2, “Antibacterial treatment and composition” (Academia Sinica, priority 2005, dated 2008)
